MIC and IC50 data for 8 molecules are collected here from paper PMC5900025, “Naphthoquinone Derivatives as Scaffold to Develop New Drugs for Tuberculosis Treatment” (Frontiers in Microbiology, 2018).

Common to all, as to assay type: cell-based
For assay [1], the system named is M. tuberculosis pan-susceptible H37Rv (ATCC 27294). The assay can be described thus: microbe, parasite or virus in culture. To be noted: REMA, 7 days at 37°C.
Assay [2] deals with three M. tuberculosis strains (H37Rv, INHR, RMPR). The assay can be described thus: microbe, parasite or virus in culture. To be noted: Mycobacterium tuberculosis, stated for all three strains together.
The test system of assay [3] is J774A.1 macrophage cell line (ATCC TIB-67). The experiment in a line: Cytotoxicity assay (resazurin). To be noted: Mus musculus, J774.A1.
The mark [4] stands for this setting: Mycobacterium tuberculosis, 168 h, read-out: MIC.
Setting [5] is: J774A.1 cells, concentration maintaining viability of 50% of the cells.
The mark [6] stands for this setting: Mycobacterium tuberculosis, 168 h.

Values after ≈ are worked out from the molar mass of the structure shown. Read-outs that look alike come from different tables or passages of the source.

Broadly, the IC50 is the concentration at which inhibition is half-maximal. For the molecule `O=C1C(Cl)=C(Cl)C(=O)c2ccccc21` [Compound 1, 2,3-Dichloronaphthalene-1,4-dione], the MIC in assay [1] (setting [4]) and in assay [2] was 111 µM (≈ 25.1 µg/mL) throughout. In assay [3], this molecule returned an IC50 of 103 µM.

Consider `CC1(C)CCC2=C(O1)C(=O)c1ccccc1C2=O` [Compound 2, 2,2-Dimethyl-3,4-dihydro-2H-benzo[g]chromene-5, 10-dione], for which the MIC was 103 µM (≈ 25 µg/mL) in assay [1] (setting [4]) and 103 to 207 µM (≈ 25 to 50.1 µg/mL) in assay [2]. The molecule further showed an IC50 in assay [3] (setting [5]) of 285 µM.

As for `CC1(C)CC2=C(O1)C(=O)c1ccccc1C2=O` [Compound 3, 2,2-Dimethyl-2,3-dihydronaphtho[2,3-b]furan-4,9-dione], the MIC in assay [1] (setting [4]) and in assay [2] was 54.8 µM (≈ 12.5 µg/mL) each time. Also, the half-inhibitory concentration (IC50) in assay [3] (setting [5]) is > 877 µM.

Molecule `C=CCOC1=CC(=O)c2ccccc2C1=O` [Compound 4, 2-(Allyloxy)naphthalene-1,4-dione] had an MIC in assay [1] (setting [6]) of 58.4 µM (≈ 12.5 µg/mL). Half-maximal inhibition in assay [3] (setting [5]) (IC50) required 173 µM.

Regarding `NC1=CC(=O)c2ccccc2C1=O` [Compound 5, 2-Aminonaphthalene-1,4-dione], in assay [1] (setting [4]), the MIC stood at 72.2 µM (≈ 12.5 µg/mL). Also, in assay [3], the IC50 was > 1160 µM.

For the molecule `O=C1C=C(Nc2ccccc2)C(=O)c2ccccc21` [Compound 6, 2-(Phenylamino)naphthalene-1,4-dione], the MIC in assay [1] (setting [6]) is 110 µM (≈ 27.5 µg/mL); in assay [1] (read-out: MIC), 100.4 µM (≈ 25 µg/mL). Further, the IC50 in assay [3] (setting [5]) was > 803 µM.

As for `NNC(=O)c1ccncc1` [INH, isoniazid, reference compound], in assay [1] (setting [4]), the MIC amounted to 0.438 µM (≈ 0.0601 µg/mL). This molecule gave an IC50 in assay [3] (setting [5]) of 3730 µM.

In the case of `CO[C@H]1/C=C/O[C@@]2(C)Oc3c(C)c(O)c4c(O)c(c(/C=N/N5CCN(C)CC5)c(O)c4c3C2=O)NC(=O)/C(C)=C\C=C\[C@H](C)[C@H](O)[C@@H](C)[C@@H](O)[C@@H](C)[C@H](OC(C)=O)[C@@H]1C` [RIF, rifampicin, reference compound], in assay [1] (setting [4]), the MIC amounted to 0.608 µM (≈ 0.5 µg/mL). For the same molecule, in assay [3] (setting [5]), the IC50 was > 2490 µM.
